Measured values as given in patent publication US6965035B1, “Compacted forms of halogenated hydantoins” (priority 2002, dated 2005).

Assays:
Type in all cases: physicochemical
[1] = Dissolution of granules or tablets in swimming pool skimmer basket under recirculated pool water
Excerpt: A swimming pool skimmer basket was divided into two halves by means of a simple plastic partition placed across the basket diameter. One half of the basket had 50 grams of pure (wax-free) DBDMH granules placed in it. In the other half of the skimmer basket was placed 50 grams of DBDMH/1 wt % MPP-611 wax granules. […] The basket, containing both sets of granules, was introduced to the skimmer of an above-ground pool. Swimming pool water was pumped past the granules in the skimmer basket by means of the pool recirculation pump. The flow rate was around 30 gallons per minute (gpm) and the water temperature was 60° F. (15.5° C.). After 6 hours, the pump was turned off and the skimmer basket containing the partially-dissolved granules was removed. The granules were removed from their respective halves of the skimmer basket and placed in crystallizing dishes to dry overnight. Each set of granules was reweighed. The weight of the undissolved portion was subtracted from the initial weight, and the amount dissolved (the difference) was expressed in terms of % dissolved (the relative dissolution rate). Table 5 lists the relative amount dissolved for both sets of granules. The procedures described in Example 4 were repeated using pure (wax-free) DBDMH granules and DBDMH/2 wt % MPP-611 wax granules. The water temperature was 66° F. (19° C.). Table 5 lists the relative amount dissolved for both sets of granules. The skimmer basket setup described in Example 4 was used. In one half of the basket, tablets of DBDMH/3 wt % MPP-611 wax (5×24 g; total weight, 120 g; each tablet is 1 inch in diameter) were placed an equal distance apart from each other. In the other half of the basket, tablets of pure (wax-free) 1,3-bromochloro-5,5-dimethylhydantoin (BCDMH; 5×20 g; total weight, 100 g) were similarly arranged. Both sets of tablets were one inch in diameter, so the effective surface area exposed was approximately the same for each set of tablets. The skimmer basket containing the tablets was placed into the skimmer of an above-ground swimming pool. Pool water was pumped past the tablets in the skimmer basket by means of the pool recirculation pump. The flow rate was around 30 gpm, the water temperature was 82.1° F. (27.8° C.), and water was recirculated for 16 hours. The tablets were dried and re-weighed. The weight of the undissolved portion was subtracted from the initial weight, and the amount dissolved (the difference) was expressed in terms of % dissolved (the relative dissolution rate). The amount of product dissolved was 75.5 g for the BCDMH tablets and 13.4 g for the DBDMH/3 wt % MPP-611 wax tablets. The BCDMH tablets dissolved at a rate 5.6 times faster (based on weight dissolved) than the DBDMH/3 wt % MPP-611 wax tablets. Based on the respective solubility of wax-free DBDMH and BCDMH powders, a relative dissolution factor of about 2 would have been expected (with the BCDMH dissolving faster).

[2] = Peak load tolerance test of granules (Sintech 1/S compression apparatus); settings: 3.5–5 mesh cut of granules; average of ten runs; standard deviation in parentheses
Experimental: To minimize size effects, a 3.5–5 mesh cut of the granulated material was used in this experiment. Peak load tests were performed on DBDMH granules without wax, with 1 wt % wax, and with 2 wt % wax. The wax in both instances was micronized polyethylene wax (MPP-611). Granules of approximately the same size were selected by visual inspection; measurements of the thickness of the granules were not made because of the very irregular shapes of the granules. Peak load tolerance tests were performed utilizing a Sintech® 1/S compression apparatus (MTS Systems Corporation, Edenprairie, Minn.) equipped with Testworks software. The apparatus included a horizontal circular-shaped load cell interfaced with a computer, a digital micrometer also interfaced with the computer, and a vertical screw-driven piston disposed above the load cell and adapted to apply a downward force perpendicular to the load cell. Each granule was placed on its edge on the load cell with the piston in contact with at least a part of the upper edge of the granule. The piston often could not contact the entire upper edge of the granule due the irregular morphology of the granule. […] At the same time, the load cell continuously measured the downward force being applied to the granule, and the input of such measurements was transmitted to the computer. […]

[3] = Specific surface area of granules by nitrogen adsorption BET technique; settings: 3.5–5 mesh granules, material from recycle compaction (Runs 1–3)
Experimental: To minimize size effects, a 3.5–5 mesh cut of the granulated material was used in this experiment. The material used in Runs 1–3 were from recycle compaction, and the material used in Run 4 was from first-run compaction. The surface area of the granules was determined by the well-known nitrogen adsorption BET technique. The BET technique consists of (1) removing adsorbed gases from the sample with heat and vacuum, (2) adsorbing a mono-layer of nitrogen on the surface at liquid nitrogen temperature, (3) measuring the amount of adsorbed nitrogen, and (4) calculating the total surface area of the sample from an assumed cross-sectional area of nitrogen molecules. The total surface area was divided by the sample weight to yield the specific surface area. Specific surface area is defined as the exposed surface area of 1 gram of the sample tested. A Coulter Model 3100 instrument was used.

Row | Structure (SMILES) | Amount dissolved ([1]; 1 inch tablets, about 30 gpm, water 82.1° F. (27.8° C.), 16 hours (text Example 6)) | Amount of product dissolved ([1]; tablets, 5×20 g BCDMH or 5×24 g DBDMH/wax, about 30 gpm, 82.1° F., 16 hours) | Dissolution rate relative to DBDMH/3 wt % MPP-611 wax tablets (based on weight dissolved) ([1]; tablets, 82.1° F., 16 hours) | Average peak load [2] | Surface Area [3] | Amount dissolved ([1]; 50 g granules >8 U.S. mesh, about 30 gpm, water 60° F. (15.5° C.), 6 hours (text Example 4)) | Amount dissolved ([1]; 50 g granules, about 30 gpm, water 66° F. (19° C.), 6 hours (text Example 5))
1 | CC1(C)C(=O)N(Cl)C(=O)N1Br [BCDMH tablets (no wax), 1,3-bromochloro-5,5-dimethylhydantoin] | 75.5% | 75.5 g | 5.6 times faster | – | – | – | –
2 | CC1(C)C(=O)N(Br)C(=O)N1Br [DBDMH, wax-free, 1,3-dibromo-5,5-dimethylhydantoin] | – | – | – | 11.7 (3.4) lb. | 5.1 m^2/g | 44% | 60%
